Tests used:
[1] = molecular target: T1, Acrosin (purified from boar sperm) (Sus scrofa, UniProt P08001); assay: Acrosin inhibition in vitro (BAPNA substrate); type: biochemical; design: Inhibition (units/mg): dose or concentration left out as unconfirmed; conditions: for Inhibition (units/mg.): sodium salts; for Inhibition (units/mg): other salts
T1 construct: purified from boar sperm; from tissue; host or cells: boar sperm
Procedure: A control using the buffer solution without the test compound added is also run. A 200 μl-sample of the incubation mixture is then withdrawn and is added to a cuvette containing BAPNA (1 ml.) and triethanolamine buffer (2 ml.). The mixture is stirred and placed in a Gilford recording spectrophotometer. The increase in optical density at 383 nm is measured. One unit of acrosin activity is defined as the amount of acrosin which will cause an increase in optical density at 383 nm. of 0.001/minute. One unit of inhibitory activity is defined as the amount of inhibitor which will cause a reduction in the increase in optical density at 383 nm. of 0.001/minute.

[2] = molecular target: T2, Testicular bovine hyaluronidase (Bos taurus, UniProt Q2YDK3); assay: Hyaluronidase inhibition in vitro (chondroitin sulfate agar plate); type: biochemical; conditions: for inhibition at 1000 µg/mL: Conc. of Test Solution 1 mg/ml; for % Inhibition: Conc. of Test Sol. 10 mg/ml
T2 construct: purchased Sigma Chemical Company; host or cells: bovine testis
T2 sequence (Q2YDK3 36-553): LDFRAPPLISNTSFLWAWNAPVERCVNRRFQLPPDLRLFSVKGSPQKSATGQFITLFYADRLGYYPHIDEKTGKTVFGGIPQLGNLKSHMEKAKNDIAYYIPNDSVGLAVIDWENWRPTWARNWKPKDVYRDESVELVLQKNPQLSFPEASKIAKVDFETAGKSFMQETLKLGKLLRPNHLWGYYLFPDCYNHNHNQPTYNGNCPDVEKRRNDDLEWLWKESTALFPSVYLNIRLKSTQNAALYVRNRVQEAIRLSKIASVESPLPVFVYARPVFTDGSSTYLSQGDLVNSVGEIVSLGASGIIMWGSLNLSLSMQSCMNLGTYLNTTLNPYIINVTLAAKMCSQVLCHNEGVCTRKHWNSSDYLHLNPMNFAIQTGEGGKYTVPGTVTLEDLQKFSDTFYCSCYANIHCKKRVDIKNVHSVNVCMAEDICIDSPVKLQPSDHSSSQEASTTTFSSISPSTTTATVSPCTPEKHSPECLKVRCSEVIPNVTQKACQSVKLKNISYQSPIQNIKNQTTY
Procedure: The inhibition of hyaluronidase is assessed using chondroitin sulfate as the enzyme substrate according to the following procedure:
Agar plates containing chondroitin sulfate (0.1 percent) are prepared by the following method: water solutions of 1 percent agarose, 2 M sodium chloride (0.1 vol.), 1 M sodium acetate (pH 5.0, 0.1 vol), and sodium azide (0.5 mg./ml., 0.1 vol.) are mixed and the mixture is brought to the boiling temperature. […] After cooling to about 45° C., the resulting mixture (20 ml.) is poured onto a petri dish. The plates are allowed to cool to room temperature. A well 2 mm. in diameter is then cut in the agar surface. […] A control using only the buffer solution without added test compound is also run. The plates are then incubated overnight (about 16 hours) at 37° C. The zones of hydrolysis of chondroitin sulfate by hyaluronidase are visualized by flooding the plate with 10 percent cetyl trimethyl ammonium bromide. The area of the zone is logarithmically proportional to the concentration of hyaluronidase. Inhibitor activity is determined by comparing the area of hydrolysis from the test compound to the area of hydrolysis from the control. The results are expressed as percent inhibition calculated as follows: [formula]

[3] = sodium salts, Conc. of Test Solution 10 mg/ml
[4] = Conc. of Test Solution 10 Mg/ml

T1 sequence (P08001 40-338 limits assumed): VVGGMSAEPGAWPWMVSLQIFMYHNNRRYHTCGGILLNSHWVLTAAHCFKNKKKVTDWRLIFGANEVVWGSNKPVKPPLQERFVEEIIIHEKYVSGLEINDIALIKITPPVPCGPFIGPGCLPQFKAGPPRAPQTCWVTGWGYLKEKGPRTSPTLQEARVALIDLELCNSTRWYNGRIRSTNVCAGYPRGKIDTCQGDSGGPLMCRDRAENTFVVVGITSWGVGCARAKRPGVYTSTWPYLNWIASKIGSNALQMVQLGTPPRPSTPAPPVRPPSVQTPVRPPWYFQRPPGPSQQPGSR
T1 sequence (P08001 17-39 limits assumed): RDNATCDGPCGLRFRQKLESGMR

Inhibition (units/mg.) ([1]; Conc. of Test Solution 1 Mg/ml)	inhibition at 1000 µg/mL ([2]; sodium salts) [%]	SMILES	also measured
132,000 units/mg.	0	CCCCCCCCCCC(CCCCCCCC)COS(=O)(=O)O (stereo not drawn) [2-octyldodecyl]	–
87,000 units/mg.	100	CCCCCCCCCCCCC(C)OS(=O)(=O)O (stereo not drawn) [2-tetradecyl]	–
29,000 units/mg.	39	CC(C)CCCC(C)CCCC(C)CCOS(=O)(=O)O (stereo not drawn) [3,7,11-trimethyldodecyl]	–
102,000 units/mg.	0	CCCCCCCCCCC(CCC)OS(=O)(=O)O (stereo not drawn) [4-tetradecyl]	–
90,000 units/mg.	12	CCCCCCCCC(CCCCC)OS(=O)(=O)O (stereo not drawn) [6-tetradecyl]	–
123,000 units/mg.	0	CCCCCCCCCC(CCCCCC)OS(=O)(=O)O (stereo not drawn) [7-hexadecyl]	–
112,000 units/mg.	0	CCCCCCCC(CCCCCC)OS(=O)(=O)O (stereo not drawn) [7-tetradecyl]	–
28,000 units/mg.	0	CCCCCCCCC(CCCCCCC)OS(=O)(=O)O (stereo not drawn) [8-hexadecyl]	–
148,000 units/mg.	7	CCCCCCCCCC(CCCCCCCC)OS(=O)(=O)O (stereo not drawn) [9-octadecyl]	–
172,000 units/mg.	7	CC(C)CCCCCCCCCCCOS(=O)(=O)O [12-methyltridecyl]	–
–	–	CCCCCCCCCCCCOS(=O)(=O)O [CH3 (CH2)11 diethanolammonium]	Inhibition (units/mg) [1]: 90,000 units/mg; inhibition at 10000 µg/mL ([2]; 16 h, other salts, Conc. of Test Sol. 10 mg/ul): 100%
–	–	CCCCCCCCCCCCCCOS(=O)(=O)O [CH3 (CH2)13 Ca]	Inhibition (units/mg) [1]: 48,000 units/mg; % Inhibition ([2]; other salts): 38%
–	–	CCCCCCCCCCCCCCOS(=O)(=O)O [CH3 (CH2)13 K]	Inhibition (units/mg) [1]: 62,000 units/mg; % Inhibition ([2]; other salts): 27%
–	–	CCCCCCCCCCCCCCOS(=O)(=O)O [CH3 (CH2)13 Li]	Inhibition (units/mg) [1]: 58,000 units/mg; % Inhibition ([2]; other salts): 27%
–	–	CCCCCCCCCCCCCCOS(=O)(=O)O [CH3 (CH2)13 Mg]	Inhibition (units/mg) [1]: 59,000 units/mg; % Inhibition ([2]; other salts): 14%
–	–	CCCCCCCCCCCCCCOS(=O)(=O)O [CH3 (CH2)13 NH4]	Inhibition (units/mg) [1]: 47,000 units/mg; % Inhibition ([2]; other salts): 14%

Inhibition (units/mg.) ([1]; Conc. of Test Solution 1 Mg/ml)	inhibition at 1000 µg/mL ([2]; sodium salts) [%]	SMILES	also measured
210,000 units/mg.	0	CCCCC/C=C\C/C=C\CCCCCCCCOS(=O)(=O)O [linoleyl]	–
216,000 units/mg.	13	CCCC/C=C/CCCCCCCCOS(=O)(=O)O [myristeladyl]	–
160,000 units/mg.	13	CCCC/C=C\CCCCCCCCOS(=O)(=O)O [myristoleyl]	–
300,000 units/mg.	0	CCCCCCCCCCCCCCCCCCCCCCOS(=O)(=O)O [n-docosyl]	–
–	–	CCCCCCCCCCCCOS(=O)(=O)[O-].[Na+] [n-dodecyl, Sodium lauryl sulfate]	inhibition at 10000 µg/mL [2, 3]: 71%
–	–	CCCCCCCCCCCCCCCCCCCCOS(=O)(=O)O [n-eicosyl]	Inhibition (units/mg.) [1, 4]: 31,800 units/mg.; inhibition at 10000 µg/mL [2, 3]: 0%
–	–	CCCCCCCCCCCOS(=O)(=O)O [n-hendecyl]	Inhibition (units/mg.) [1, 4]: 0 units/mg.; inhibition at 10000 µg/mL [2, 3]: 100%
100,000 units/mg.	0	CCCCCCCCCCCCCCCCCCCCCCCCCCCOS(=O)(=O)O [n-heptacosyl]	–
–	–	CCCCCCCCCCCCCCCCCOS(=O)(=O)O [n-heptadecyl]	Inhibition (units/mg.) [1, 4]: 18,300 units/mg.; inhibition at 10000 µg/mL [2, 3]: 23%
–	–	CCCCCCCCCCCCCCCCOS(=O)(=O)O [n-hexadecyl]	Inhibition (units/mg.) [1, 4]: 15,200 units/mg.; inhibition at 10000 µg/mL [2, 3]: 75%
–	–	CCCCCCCCCCCCCCCCCCOS(=O)(=O)O [n-octadecyl]	Inhibition (units/mg.) [1, 4]: 26,000 units/mg.; inhibition at 10000 µg/mL [2, 3]: 30%
–	–	CCCCCCCCCCCCCCCOS(=O)(=O)O [n-pentadecyl]	Inhibition (units/mg.) [1, 4]: 14,300 units/mg.; inhibition at 10000 µg/mL [2, 3]: 60%
123,000 units/mg.	0	CCCCCCCCCCCCCCCCCCCCCCCCOS(=O)(=O)O [n-tetracosyl]	–
–	–	CCCCCCCCCCCCCOS(=O)(=O)O [n-tridecyl]	Inhibition (units/mg.) [1, 4]: 3,200 units/mg.; inhibition at 10000 µg/mL [2, 3]: 80%
152,000 units/mg.	0	CCCCCCCC/C=C\CCCCCCCCOS(=O)(=O)O [oleyl]	–
240,000 units/mg.	0	CC(C)CCCC(C)CCOS(=O)(=O)O (stereo not drawn) [tetrahydrogeranyl]	–

Source: patent publication US4264577A, “Contraceptive methods and compositions” (Eli Lilly and Company, priority 1980, dated 1981)
